The nature of series [1]: CD spectroscopy, α-helicity. The series is classed as physicochemical. To be noted: CD in PBS, pH 7.4, final peptide concentration 10 μM, pre-incubated 37 °C 0.5 h. Here is the method:
(§1) Lyophilized peptides were resuspended in ddH2O (pH 7.0) at a concentration of approximately 1 mg mL^–1. […] The peptides were incubated in a water bath set at 37 °C for 0.5 h before testing. CD spectra were acquired on an MOS-450 system (BioLogic, Claix, France) using the following parameters: band width, 4.0 nm; resolution, 0.1 nm; path length, 0.1 cm; response time, 4.0 s; and scanning speed, 50 nm min^–1. For CD thermal denaturation analysis, the temperature was controlled by a BioLogic TCU250 system, and CD spectra were monitored at 222 nm from 10 °C to 90 °C at a scan speed of 2 °C min^–1.
(§2) Table S1. Biophysical properties of the designed peptides a
(§3) a CD spectra of each designed peptide were monitored in PBS, pH 7.4. The final peptide concentration was 10 μM. […]

Series [2] can be described thus: Chemical denaturation by Gdn·HCl followed by CD at 222 nm. The series is classed as physicochemical. To be noted: 7 M Gdn·HCl in PBS pH 7.4, 3 h at room temperature, CD 222 nm (Fig. 3C). The method, then: For thermal denaturation studies, the stock peptide solutions were diluted with appropriate volumes of buffer and guanidine hydrochloride.
Series [3] in a line: CD thermal denaturation (Tm). The series is classed as physicochemical. To be noted: CD at 222 nm, 10 °C to 90 °C at 2 °C min–1, PBS pH 7.4, 10 μM peptide. Here is the method:
as §1
The samples were incubated at room temperature for 3 h before their full-range CD spectra or the ellipticities at 222 nm were recorded. For thermal denaturation studies, the stock peptide solutions were diluted with appropriate volumes of buffer and guanidine hydrochloride. Thermal denaturation was performed by monitoring the ellipticity change at 222 nm from 10 °C to 90 °C at a rate of 2 °C min^–1.
as §2, §3
(§4) Table S2. Sequences of designed peptides a
(§5) a The Glu residues with a thioester side chain are underlined. Isopeptide bonds are formed between Lys-9 and Glu-14 (in […]

The nature of series [4]: Sedimentation velocity analysis (SVA), oligomerization state. The class given is physicochemical. The note with it: 150 μM in PBS (pH 7.4), 60,000 rpm, 20 °C, 280 nm; for Sedimentation coefficient: SEDFIT; for Observed molecular mass (kDa) by sedimentation analysis: SEDFIT c(M). Here is the method:
All measurements were performed on a ProteomelabTMXL-A/XL-I analytical ultracentrifuge (Beckman Coulter, Fullerton, CA, USA) at 20 °C, as described previously. In brief, three-channel cells were used with an An-60 Tirotor. Lyophilized peptides were resuspended in ddH2O (pH 7.0) at approximately 1 mg mL^–1. The individual proteins were prepared in PBS and incubated at 37 °C for 30 min. All samples were prepared at a final concentration of 150 μM and were initially scanned at 3000 rpm for 10 min to identify the appropriate wavelength for data collection. Data were collected at 60 000 rpm at a wavelength of 280 nm. Sedimentation coefficient distribution, c(s), and molecular mass distribution, c(M), were calculated using the SEDFIT program.
Table S1. […]
Sedimentation equilibrium studies were performed at a concentration of 150 μM in PBS (pH 7.4) and a rotor speed of
60,000 rpm at 20 °C. b The theoretical molecular mass for the HR peptides in the monomeric conformation.
as §4, §5

The test system of the next series is HIV-1BaL. Kind of series: HIV-1BaL infection assay (TZM-b1 cells, p24 ELISA). To be noted: 100 TCID50, p24 ELISA on fourth day post-infection, triplicate, mean ± standard deviation, read-out: EC50 (nM) for inhibiting HIV-1BaL infection. The series is classed as cell-based. The text has this: (§6) To measure the inhibitory activity of the peptides on infection of HIV-1IIIB and HIV-1BaL, 1 × 10^4 MT-2 cells and TZM-b1 cells, respectively, were infected with 100 times the median tissue culture infective dose of a virus in the presence or absence of the peptides at graded concentrations. On the fourth day post-infection, the culture supernatants were collected for detection of p24 antigen using an enzyme-linked immunosorbent assay (ELISA). The percent inhibition by the peptides and EC50 values was calculated using Calcusyn software.[27]

For series [5], the system named is HIV-1 Env-mediated cell–cell fusion. To be noted: read-out: EC50 (nM) for inhibiting cell–cell fusion; HL2/3 and TZM-bl cells coincubated 6–8 h at 37 °C, luciferase read-out; triplicate, mean ± standard deviation. The method, then: Cell–cell fusion assays were performed as described previously.[26] HL2/3 cells, which stably express HIV Gag, Env, Tat, Rev, and Nef proteins, as well as TZM-bl cells, which stably express large amounts of CD4 and CCR5, were obtained from the NIH AIDS Reference and Reagent Program (contributed by Drs Barbara Felber and George Pavlakis and Drs John C. Kappes and Xiaoyun Wu, respectively). TZM-bl cells (2.5 × 10^4 per well) and HL2/3 cells (7.5 × 10^4 per well) were coincubated in 96-well plates (Corning Costar) at 37 °C in 5% CO2 in the presence of different concentrations of inhibitors. After incubation for 6–8 h, the medium was aspirated, the cells were washed and lysed, and luciferase activity was measured using the Luciferase Assay System (Promega, Madison, WI) on a SpectraMax M5 plate reader (Molecular Devices, Sunnyvale, CA).

The subject of another series is HIV-1IIIB. Nature of the series: HIV-1IIIB infection assay (MT-2 cells, p24 ELISA). The class given is cell-based. The note with it: 100 TCID50, p24 ELISA on fourth day post-infection, triplicate, mean ± standard deviation, read-out: EC50 (nM) for inhibiting HIV–1IIIB infection.
Excerpt: as §6
For orientation: ELISA stands for enzyme-linked immunosorbent assay.

The conditions of series [6]: rat (Sprague-Dawley, three pooled) liver homogenate, 4 mL Tris–HCl 50 mM pH 7.4 per g, 9,000g supernatant, peptide 10 μg/mL, LC-MS/MS (SIM) (Fig. 4B).
Description: (§7) Qualification assay. Chromatographic analyses were performed using an ODS-C8 column (5 μm, 100 mm × 2.0mm ID) kept at ambient temperature. The mobile phase was composed of acetonitrile-water-formic acid in the ratio of 60:40:0.1 (v/v/v) at a flow rate of 0.3 mL/min. The sample injection volume was 10 μL. Acetonitrile was HPLC grade, and other chemical reagents and solvents were analytical grade. A Thermo TSQ Quantum Discovery MAX triple–quadruple tandem mass spectrometer equipped with ESI source (San Jose, CA) and Surveyor LC pump were used for LC-MS/MS analysis. Data acquisition and data processing were performed by using Xcalibur software and LCQuan 2.0 data analysis program (Thermo Finnigan), respectively. Optimized MS parameters were as below: 4800 V spray voltage, 10.0 psi sheath gas pressure, 1.0 psi auxiliary valve flow, and 300 °C of capillary temperature. When running collision-induced dissociation (CID), the pressure was set to 1.5 mTorr. The selected ion monitoring (SIM) mode was preformed for T20
(§8) Preparation of Samples. By use of a simple protein precipitation method, a test compound was extracted from liver
(§9) homogenate and 20 ng/mL proteinase K in PBS, respectively. Samples for standard curves were prepared by spiking 50
(§10) μL of rat liver homogenate or 20 ng/mL proteinase K with 100 μL of various concentrations of each test compound
(§11) ranging from 0.1－5 μg/mL in ethanol. […]
In a further series the target is proteinase K (Parengyodontium album, UniProt P06873). The note with it: 20 ng/mL proteinase K in PBS, peptide 10 μg/mL, LC-MS/MS (SIM) (Fig. 4A).

Bridge positions count the residues as written; N and C are the ends. Peptide text beside a SMILES is read from it. I, II: the chains in the order shown.

Sequence of proteinase K (P06873 106-384): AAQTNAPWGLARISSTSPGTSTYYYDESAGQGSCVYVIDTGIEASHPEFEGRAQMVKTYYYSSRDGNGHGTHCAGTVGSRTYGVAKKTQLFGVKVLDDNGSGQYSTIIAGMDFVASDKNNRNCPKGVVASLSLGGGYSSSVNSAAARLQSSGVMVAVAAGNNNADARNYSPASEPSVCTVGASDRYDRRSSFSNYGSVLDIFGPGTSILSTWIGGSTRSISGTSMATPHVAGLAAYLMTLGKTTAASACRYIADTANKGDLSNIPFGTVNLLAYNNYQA
Description for proteinase K: as §7, §8, §9, §10, §11

Regarding `CC[C@H](C)[C@H](NC(=O)[C@H](CCC(N)=O)NC(=O)[C@H](CCC(N)=O)NC(=O)[C@@H](NC(=O)[C@H](CCCNC(=N)N)NC(=O)[C@H](CCC(N)=O)NC(=O)[C@H](CCC(=O)O)NC(=O)[C@@H](NC(=O)[C@H](Cc1c[nH]cn1)NC(=O)[C@H](Cc1c[nH]cn1)NC(=O)[C@@H](NC(=O)[C@H](CCCCN)NC(=O)[C@H](CCC(N)=O)NC(=O)[C@H](CCC(=O)O)NC(=O)[C@@H](NC(=O)[C@H](CCC(N)=O)NC(=O)[C@H](CCC(N)=O)NC(=O)[C@@H](NC(=O)[C@H](CCCNC(=N)N)NC(=O)[C@H](Cc1c[nH]c2ccccc12)NC(C)=O)[C@@H](C)CC)[C@@H](C)CC)[C@@H](C)CC)[C@@H](C)CC)[C@@H](C)CC)C(=O)N[C@@H](CCC(=O)O)C(=O)N[C@@H](CCC(N)=O)C(N)=O` [Compound 3HR] (Ac-WRIQQIEQKIHHIEQRIQQIEQ-NH2), the “Helicity (%)” value in [1] worked out at 46.4%. The “[θ]G/[θ]0 ([θ]222 with Gdn·HCl vs. without) / resistance to Gdn·HCl unfolding” value in series [2] was “completely lost its tertiary structure”. In addition, the “Tm (°C)” value in series [3] came out at 44 °C. In [4], the “Sedimentation coefficient” value came to 1.2 s and the “Observed molecular mass (kDa) by sedimentation analysis” value (“Observed molecular mass (kDa)” below) is listed as 9.9 kDa.
In the case of `CC[C@H](C)[C@H](NC(=O)[C@H](CCC(N)=O)NC(=O)[C@H](CCC(N)=O)NC(=O)[C@@H](NC(=O)[C@H](CCCNC(=N)N)NC(=O)[C@H](CCC(N)=O)NC(=O)[C@H](CCC(=O)O)NC(=O)[C@@H](NC(=O)[C@H](CCC(N)=O)NC(=O)[C@H](CCC(N)=O)NC(=O)[C@@H](NC(=O)[C@H](CCCNC(=N)N)NC(=O)[C@H](CCC(N)=O)NC(=O)[C@H](CCC(=O)O)NC(=O)[C@@H](NC(=O)[C@H](Cc1c[nH]cn1)NC(=O)[C@H](Cc1c[nH]cn1)NC(=O)[C@@H](NC(=O)[C@H](CCCCN)NC(=O)[C@H](CCC(N)=O)NC(=O)[C@H](CCC(=O)O)NC(=O)[C@@H](NC(=O)[C@H](CCC(N)=O)NC(=O)[C@H](CCC(N)=O)NC(=O)[C@@H](NC(=O)[C@H](CCCNC(=N)N)NC(=O)[C@H](Cc1c[nH]c2ccccc12)NC(C)=O)[C@@H](C)CC)[C@@H](C)CC)[C@@H](C)CC)[C@@H](C)CC)[C@@H](C)CC)[C@@H](C)CC)[C@@H](C)CC)C(=O)N[C@@H](CCC(=O)O)C(=O)N[C@@H](CCC(N)=O)C(N)=O` [Compound 4HR] (Ac-WRIQQIEQKIHHIEQRIQQIEQRIQQIEQ-NH2), the “Helicity (%)” value in series [1] was 99.5%. For the same compound, the “[θ]G/[θ]0 ([θ]222 with Gdn·HCl vs. without) / resistance to Gdn·HCl unfolding” value in series [2] is given as around 0.2. In addition, in [3], the “Tm (°C)” value was “higher than 90 °C”. Besides, in [4], the “Sedimentation coefficient” value turned out to be 1.3 s and the “Observed molecular mass (kDa)” value was determined as 10.5 kDa.
`CC[C@H](C)[C@H](NC(C)=O)C(=O)N[C@@H](CCC(=O)O)C(=O)N[C@@H](C)C(=O)N[C@@H](CCC(N)=O)C(=O)N[C@@H](CCC(N)=O)C(=O)N[C@@H](Cc1c[nH]cn1)C(=O)N[C@@H](CC(C)C)C(=O)N[C@@H](CC(C)C)C(=O)N[C@@H](CCC(N)=O)C(=O)N[C@@H](CC(C)C)C(=O)N[C@H](C(=O)N[C@H](C(=O)N[C@@H](Cc1c[nH]c2ccccc12)C(=O)NCC(=O)N[C@H](C(=O)N[C@@H](CCCCN)C(=O)N[C@@H](CCC(N)=O)C(=O)N[C@@H](CC(C)C)C(=O)N[C@@H](CCC(N)=O)C(=O)N[C@@H](C)C(=O)N[C@@H](CCCNC(=N)N)C(=O)N[C@H](C(=O)N[C@@H](CC(C)C)C(N)=O)[C@@H](C)CC)[C@@H](C)CC)C(C)C)[C@@H](C)O` [Compound N23, reference compound] (Ac-IEAQQHLLQLTVWGIKQLQARIL-NH2): the EC50 in the series with HIV-1BaL was above 10000 nM; in [5], above 5000 nM; with HIV-1IIIB, above 10000 nM. For the same compound, the “Helicity (%)” value in series [1] turned out to be 16.8%. Besides, the “Tm (°C)” value in series [3] is given as “not detected”.
On to “I: Ac-WRIQQIEQKIHHIEQRIQQIEQ-NH2 / II: Ac-WRIQQIEQKIHHIEQRIQQIEQ-NH2 / III: Ac-WRIQQIEQKIHHIEQRIQQIEQ-NH2 (amide I:9-III:14, I:14-II:9, II:14-III:9) [(3HR)3]”, for which the EC50 in the series on HIV-1BaL was above 10000 nM; in [5], above 5000 nM; with HIV-1IIIB it was above 10000 nM. In series [1], the “Helicity (%)” value is 83.4%. Moreover, the “[θ]G/[θ]0 ([θ]222 with Gdn·HCl vs. without) / resistance to Gdn·HCl unfolding” value in series [2] is “almost unbreakable”. Further, the “Tm (°C)” value in [3] is “higher than 90 °C”. The “Sedimentation coefficient” value in series [4] amounted to 1.2 s. The “Observed molecular mass (kDa)” value in series [4] was 9.2 kDa.
In the case of “I: Ac-WRIQQIEQKIHHIEQRIQQIEQRIQQIEQ-NH2 / II: Ac-WRIQQIEQKIHHIEQRIQQIEQRIQQIEQ-NH2 / III: Ac-WRIQQIEQKIHHIEQRIQQIEQRIQQIEQ-NH2 (amide I:9-III:14, I:14-II:9, II:14-III:9) [(4HR)3]”, the EC50 in the series with HIV-1BaL is above 10000 nM; in series [5], above 5000 nM; in the series on HIV-1IIIB, above 10000 nM. For the same compound, in series [2], the “[θ]G/[θ]0 ([θ]222 with Gdn·HCl vs. without) / resistance to Gdn·HCl unfolding” value is “almost unbreakable”. Besides, the “Tm (°C)” value in series [3] was “higher than 90 °C”. For the same compound, the “Sedimentation coefficient” value in [4] turned out to be 1.5 s. Besides, in series [4], the “Observed molecular mass (kDa)” value came to 13.3 kDa.
“W RIQQIEQ KI HHIE Q RIQQIEQ RIEAQQH LLQLTVW GIKQLQA RIL (sidechain bridge or staple) [(3HRN23)3]”: the figures for the EC50 (with HIV-1BaL; in [5]; in the series with HIV-1IIIB) were 58.2 ± 1.5 nM, 10.2 ± 0.9 nM and 21.3 ± 1.8 nM, respectively. Besides, in [1], the “Helicity (%)” value is listed as 89.6%. Besides, the “Tm (°C)” value in series [3] is above 90 °C. In addition, the “proteolytic stability in liver homogenate, compared with T20” value in [6] is given as “much more resistant than T20”. Further, the “Sedimentation coefficient” value in series [4] came out at 1.6 s. In addition, the “Observed molecular mass (kDa)” value in [4] turned out to be 17.3 kDa. The “proteolytic stability in proteinase K, compared with T20” value on proteinase K is recorded as “much more resistant than T20”.

One may read the EC50 as the midpoint of the concentration-response curve.
